Assay results from US20250205344A1, “2,4-DIOXOTETRAHYDROPYRIMIDINYL DERATIVES AS DEGRONS IN PROTACS” (GLAXOSMITHKLINE INTELLECTUAL PROPERTY DEVELOPMENT LIMITED, priority 2022, published 2025).
Where a name gives a salt, the structure may show the parent alone.

The compounds below were run against T1, Androgen Receptor (Homo sapiens, UniProt P10275, T878A) (assay: Androgen Receptor Degradation Assay (Nano-Glo HiBiT)). Settings: LNCaP, 18 h, HiBiT-tagged AR in human LnCaP cells, read-out: mean asymptote max.
T1 construct: the AR gene was modified, using CRISPR/Cas9 editing, so the expressed AR protein included an 11 amino acid HiBiT tag; endogenous in cells; host or cells: clonal LnCaP-derived line, AR gene edited by CRISPR/Cas9
T1 sequence (P10275 whole entry T878A): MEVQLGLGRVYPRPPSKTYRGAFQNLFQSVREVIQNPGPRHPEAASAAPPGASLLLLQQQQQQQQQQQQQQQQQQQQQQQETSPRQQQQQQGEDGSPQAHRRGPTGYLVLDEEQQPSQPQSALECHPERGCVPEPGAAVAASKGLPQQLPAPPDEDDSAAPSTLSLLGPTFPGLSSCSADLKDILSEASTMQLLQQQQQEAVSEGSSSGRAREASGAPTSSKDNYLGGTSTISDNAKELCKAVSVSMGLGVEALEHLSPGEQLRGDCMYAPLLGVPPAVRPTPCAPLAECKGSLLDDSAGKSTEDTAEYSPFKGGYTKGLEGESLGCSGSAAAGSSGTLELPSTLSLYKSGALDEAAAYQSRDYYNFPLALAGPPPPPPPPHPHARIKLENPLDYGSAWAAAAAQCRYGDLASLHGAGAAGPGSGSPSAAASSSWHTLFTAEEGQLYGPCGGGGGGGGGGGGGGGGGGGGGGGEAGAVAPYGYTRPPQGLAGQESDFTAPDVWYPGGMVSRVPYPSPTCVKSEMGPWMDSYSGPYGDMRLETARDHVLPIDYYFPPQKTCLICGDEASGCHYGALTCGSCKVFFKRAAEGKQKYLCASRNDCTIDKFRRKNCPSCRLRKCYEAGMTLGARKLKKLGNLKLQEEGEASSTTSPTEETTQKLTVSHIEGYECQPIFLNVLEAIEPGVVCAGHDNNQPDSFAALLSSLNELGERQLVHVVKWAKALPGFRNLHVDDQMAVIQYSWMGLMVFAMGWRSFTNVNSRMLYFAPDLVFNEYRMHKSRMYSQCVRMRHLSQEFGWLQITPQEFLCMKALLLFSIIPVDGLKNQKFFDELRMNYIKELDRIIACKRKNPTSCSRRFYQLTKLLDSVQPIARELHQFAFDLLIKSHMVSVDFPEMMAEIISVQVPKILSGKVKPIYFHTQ
T1 sequence (Q96SW2 whole entry partner): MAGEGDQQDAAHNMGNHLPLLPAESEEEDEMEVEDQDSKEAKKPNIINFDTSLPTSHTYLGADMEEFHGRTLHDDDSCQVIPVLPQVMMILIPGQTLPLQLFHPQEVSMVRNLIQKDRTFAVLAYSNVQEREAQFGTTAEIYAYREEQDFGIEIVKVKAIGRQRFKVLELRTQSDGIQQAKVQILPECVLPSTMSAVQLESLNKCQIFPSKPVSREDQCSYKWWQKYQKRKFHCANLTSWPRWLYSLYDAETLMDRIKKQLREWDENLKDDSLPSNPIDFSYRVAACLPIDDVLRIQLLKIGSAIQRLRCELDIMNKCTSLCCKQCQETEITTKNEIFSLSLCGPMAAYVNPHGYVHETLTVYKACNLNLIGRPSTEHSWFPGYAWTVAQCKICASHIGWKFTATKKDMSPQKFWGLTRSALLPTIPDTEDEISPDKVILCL
T1 sequence (Q16531 whole entry partner): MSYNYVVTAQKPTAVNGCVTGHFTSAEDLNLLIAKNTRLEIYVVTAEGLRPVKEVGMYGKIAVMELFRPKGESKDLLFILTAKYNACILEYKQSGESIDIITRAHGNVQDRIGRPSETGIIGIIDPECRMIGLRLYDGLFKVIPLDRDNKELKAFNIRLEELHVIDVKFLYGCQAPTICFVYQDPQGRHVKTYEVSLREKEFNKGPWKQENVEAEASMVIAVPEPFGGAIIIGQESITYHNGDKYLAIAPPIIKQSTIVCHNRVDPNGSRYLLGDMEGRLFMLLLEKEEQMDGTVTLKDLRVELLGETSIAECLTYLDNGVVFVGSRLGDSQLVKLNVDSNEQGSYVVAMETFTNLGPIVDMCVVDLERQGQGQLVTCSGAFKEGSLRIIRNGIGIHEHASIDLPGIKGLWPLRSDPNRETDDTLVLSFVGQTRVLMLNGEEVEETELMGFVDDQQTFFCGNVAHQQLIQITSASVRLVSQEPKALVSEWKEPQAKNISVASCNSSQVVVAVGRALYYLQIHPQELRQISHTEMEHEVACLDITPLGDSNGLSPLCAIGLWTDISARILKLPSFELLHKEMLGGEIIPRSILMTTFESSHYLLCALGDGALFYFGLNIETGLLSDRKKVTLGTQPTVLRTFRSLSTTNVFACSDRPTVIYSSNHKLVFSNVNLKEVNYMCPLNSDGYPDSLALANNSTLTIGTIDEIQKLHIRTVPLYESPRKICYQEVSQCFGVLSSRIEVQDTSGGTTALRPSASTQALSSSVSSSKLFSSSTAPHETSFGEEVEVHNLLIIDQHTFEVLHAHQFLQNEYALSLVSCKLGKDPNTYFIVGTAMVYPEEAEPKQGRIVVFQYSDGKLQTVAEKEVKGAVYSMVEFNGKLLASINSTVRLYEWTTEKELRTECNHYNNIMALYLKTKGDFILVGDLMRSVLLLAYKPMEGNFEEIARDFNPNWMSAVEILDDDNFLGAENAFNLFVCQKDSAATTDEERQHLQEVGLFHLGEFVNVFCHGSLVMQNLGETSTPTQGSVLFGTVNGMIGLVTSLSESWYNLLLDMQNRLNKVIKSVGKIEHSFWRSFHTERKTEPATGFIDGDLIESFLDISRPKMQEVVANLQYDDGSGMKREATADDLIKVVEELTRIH
Assay type: cell-based
Outline: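 LnCaP cells with CRISPR-knocked-in N-terminal HiBiT-tagged AR (10,000/well) treated 18 h at 37 °C with PROTACs over 11 threefold concentrations; lytic HiBiT luminescence normalised to DMSO (0%) and cell-free (100%) controls. Relative DC50 = 4-parameter fit inflection; absolute DC50 = 50% degradation interpolation; Dmax = maximum observed degradation.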
With N#Cc1ccc(O[C@H]2CC[C@H](NC(=O)c3ccc(N4CCC(CN5CCC(n6ncc7c(N8CCC(=O)NC8=O)nccc76)CC5)CC4)nn3)CC2)cc1Cl [EAR51, N-((1r,4r)-4-(3-Chloro-4-cyanophenoxy)cyclohexyl)-6-(4-((4-(4-(2,4-dioxotetrahydropyrimidin-1(2H)-yl)-1H-pyrazolo[4,3-c]pyridin-1-yl)piperidin-1-yl)methyl)piperidin-1-yl)pyridazine-3-carboxamide] the Dmax was no less than 50%.
N#Cc1ccc(O[C@H]2CC[C@H](NC(=O)c3ccc(N4CCC(CN5CCC(n6ccc7c(N8CCC(=O)NC8=O)ncnc76)CC5)CC4)nn3)CC2)cc1Cl [EAR119, N-((1r,4r)-4-(3-Chloro-4-cyanophenoxy)cyclohexyl)-6-(4-((4-(4-(2,4-dioxotetrahydropyrimidin-1(2H)-yl)-7H-pyrrolo[2,3-d]pyrimidin-7-yl)piperidin-1-yl)methyl)piperidin-1-yl)pyridazine-3-carboxamide] was tested, and the Dmax was no less than 50%.
Work on N#Cc1ccc(O[C@H]2CC[C@H](NC(=O)c3ccc(N4CCC(CN5CCC(n6ccc7c(N8CCC(=O)NC8=O)nc(Cl)nc76)CC5)CC4)nn3)CC2)cc1Cl [EAR175, 6-(4-((4-(2-Chloro-4-(2,4-dioxotetrahydropyrimidin-1(2H)-yl)-7H-pyrrolo[2,3-d]pyrimidin-7-yl)piperidin-1-yl)methyl)piperidin-1-yl)-N-((1r,4r)-4-(3-chloro-4-cyanophenoxy)cyclohexyl)pyridazine-3-carboxamide] yielded a Dmax of no less than 50%.
N#Cc1ccc(O[C@H]2CC[C@H](NC(=O)c3ccc(N4CCC(CN5CCC(n6ccc7c(N8CCC(=O)NC8=O)ccnc76)CC5)CC4)nn3)CC2)cc1C(F)(F)F [EAR212, N-((1r,4r)-4-(4-Cyano-3-(trifluoromethyl)phenoxy)cyclohexyl)-6-(4-((4-(4-(2,4-dioxotetrahydropyrimidin-1(2H)-yl)-1H-pyrrolo[2,3-b]pyridin-1-yl)piperidin-1-yl)methyl)piperidin-1-yl)pyridazine-3-carboxamide] gave a Dmax of no less than 50%.
N#Cc1ccc(O[C@H]2CC[C@H](NC(=O)c3ccc(N4CC5CC(C4)C5CN4CCC(n5ncc6c(N7CCC(=O)NC7=O)cccc65)CC4)nn3)CC2)cc1Cl (stereo partly shown) [EAR228, N-((1r,4r)-4-(3-chloro-4-cyanophenoxy)cyclohexyl)-6-(6-((4-(4-(2,4-dioxotetrahydropyrimidin-1(2H)-yl)-1H-indazol-1-yl)piperidin-1-yl)methyl)-3-azabicyclo[3.1.1]heptan-3-yl)pyridazine-3-carboxamide] gave a Dmax of no less than 50%.
For N#Cc1ccc(O[C@H]2CC[C@H](NC(=O)c3cnc(N4CCC(CN5CCC(n6ncc7c(N8CCC(=O)NC8=O)cc(F)cc76)CC5)CC4)cn3)CC2)cc1Cl [EAR217, N-((1r,4r)-4-(3-chloro-4-cyanophenoxy)cyclohexyl)-5-(4-((4-(4-(2,4-dioxotetrahydropyrimidin-1(2H)-yl)-6-fluoro-1H-indazol-1-yl)piperidin-1-yl)methyl)piperidin-1-yl)pyrazine-2-carboxamide hydrochloride], the Dmax was no less than 50%.
Work on N#Cc1ccc(O[C@H]2CC[C@H](NC(=O)c3ccc(CN4CCC(n5ccc6c(N7CCC(=O)NC7=O)cccc65)CC4)cc3)CC2)cc1Cl [EAR180, N-((1r,4r)-4-(3-Chloro-4-cyanophenoxy)cyclohexyl)-4-((4-(4-(2,4-dioxotetrahydropyrimidin-1(2H)-yl)-1H-indol-1-yl)piperidin-1-yl)methyl)benzamide] yielded a Dmax of no less than 50%.
Work on CC(C)n1ccc2c(N3CCC(=O)NC3=O)cc(C(=O)N3CCC4(CCN(Cc5ccc(C(=O)N[C@H]6CC[C@H](Oc7ccc(C#N)c(Cl)c7)CC6)cc5)CC4)CC3)cc21 [EAR84, N-((1r,4r)-4-(3-Chloro-4-cyanophenoxy)cyclohexyl)-4-((9-(4-(2,4-dioxotetrahydropyrimidin-1(2H)-yl)-1-isopropyl-1H-indole-6-carbonyl)-3,9-diazaspiro[5.5]undecan-3-yl)methyl)benzamide] yielded a Dmax of no less than 50%.
N#Cc1ccc(O[C@H]2CC[C@H](NC(=O)c3ccc(N4CCO[C@H](CN5CCC(n6ccc7c(N8CCC(=O)NC8=O)cccc76)CC5)C4)nn3)CC2)cc1Cl [EAR123, N-((1r,4R)-4-(3-Chloro-4-cyanophenoxy)cyclohexyl)-6-((R)-2-((4-(4-(2,4-dioxotetrahydropyrimidin-1(2H)-yl)-1H-indol-1-yl)piperidin-1-yl)methyl)morpholino)pyridazine-3-carboxamide] gave a Dmax of no less than 50%.
For N#Cc1ccc(O[C@H]2CC[C@H](NC(=O)c3ccc(N4CCC(CN5CCC[C@@](F)(Cn6ccc7c(N8CCC(=O)NC8=O)cccc76)C5)CC4)nn3)CC2)cc1Cl [EAR159, N-((1r,4r)-4-(3-Chloro-4-cyanophenoxy)cyclohexyl)-6-(4-(((S)-3-((4-(2,4-dioxotetrahydropyrimidin-1(2H)-yl)-1H-indol-1-yl)methyl)-3-fluoropiperidin-1-yl)methyl)piperidin-1-yl)pyridazine-3-carboxamide], the Dmax was no less than 50%.
In the case of CN(CCCCCN1CCC(n2ncc3c(N4CCC(=O)NC4=O)cccc32)CC1)c1ccc(C(=O)N[C@H]2CC[C@H](Oc3ccc(C#N)c(Cl)c3)CC2)nn1 [EAR220, N-((1r,4r)-4-(3-chloro-4-cyanophenoxy)cyclohexyl)-6-((5-(4-(4-(2,4-dioxotetrahydropyrimidin-1(2H)-yl)-1H-indazol-1-yl)piperidin-1-yl)pentyl)(methyl)amino)pyridazine-3-carboxamide], the Dmax is reported as no less than 50%.
Compound N#Cc1ccc(O[C@H]2CC[C@H](NC(=O)c3ccc(N4CCC(CN5CCC(n6ccc7c(N8CCC(=O)NC8=O)cc(C(F)(F)F)cc76)CC5)CC4)nn3)CC2)cc1Cl [EAR176, N-((1r,4r)-4-(3-chloro-4-cyanophenoxy)cyclohexyl)-6-(4-((4-(4-(2,4-dioxotetrahydropyrimidin-1(2H)-yl)-6-(trifluoromethyl)-1H-indol-1-yl)piperidin-1-yl)methyl)piperidin-1-yl)pyridazine-3-carboxamide] has a Dmax of no less than 50%.
N#Cc1ccc(O[C@H]2CC[C@H](NC(=O)c3cnc(N4CCC(CN5CCC(n6ccc7c(N8CCC(=O)NC8=O)cccc76)CC5)CC4)cn3)CC2)cc1C(F)(F)F [EAR22, N-((1r,4r)-4-(4-Cyano-3-(trifluoromethyl)phenoxy)cyclohexyl)-5-(4-((4-(4-(2,4-dioxotetrahydropyrimidin-1(2H)-yl)-1H-indol-1-yl)piperidin-1-yl)methyl)piperidin-1-yl)pyrazine-2-carboxamide hydrochloride] gave a Dmax of no less than 50%.
With CC(C)n1ccc2c(N3CCC(=O)NC3=O)cc(C(=O)N(C)CC3CCN(C4CCN(c5ccc(N6C(=S)N(c7ccc(C#N)c(C(F)(F)F)c7)C(=O)C6(C)C)cc5)CC4)CC3)cc21 [EAR88, N-((1′-(4-(3-(4-Cyano-3-(trifluoromethyl)phenyl)-5,5-dimethyl-4-oxo-2-thioxoimidazolidin-1-yl)phenyl)-[1,4′-bipiperidin]-4-yl)methyl)-4-(2,4-dioxotetrahydropyrimidin-1(2H)-yl)-1-isopropyl-N-methyl-1H-indole-6-carboxamide formate] the Dmax was no less than 50%.
CN(c1ccc(C#N)c(Cl)c1)[C@H]1CC[C@H](NC(=O)c2ccc(N3CCC(CN4CCC(n5ccc6c(N7CCC(=O)NC7=O)cc(F)cc65)CC4)CC3)nn2)CC1 [EAR201, N-((1r,4r)-4-((3-Chloro-4-cyanophenyl)(methyl)amino)cyclohexyl)-6-(4-((4-(4-(2,4-dioxotetrahydropyrimidin-1(2H)-yl)-6-fluoro-1H-indol-1-yl)piperidin-1-yl)methyl)piperidin-1-yl)pyridazine-3-carboxamide hydrochloride] gave a Dmax of no less than 50%.
For N#Cc1ccc(O[C@H]2CC[C@H](NC(=O)c3ccc(N4CC5CCC(C4)C5CN4CCC(n5ncc6c(N7CCC(=O)NC7=O)cccc65)CC4)nn3)CC2)cc1Cl (stereo partly shown) [EAR226, N-((1r,4r)-4-(3-chloro-4-cyanophenoxy)cyclohexyl)-6-(8-((4-(4-(2,4-dioxotetrahydropyrimidin-1(2H)-yl)-1H-indazol-1-yl)piperidin-1-yl)methyl)-3-azabicyclo[3.2.1]octan-3-yl)pyridazine-3-carboxamide], the Dmax was no less than 50%.
With C[C@@H]1CN(c2ccc(C#N)c(Cl)c2)[C@@H](C)CN1C(=O)Nc1ccc(N2CCC(CCN3CCC(n4ccc5c(N6CCC(=O)NC6=O)cccc54)CC3)CC2)nc1 (racemic) [EAR115, rac-(trans)-4-(3-Chloro-4-cyanophenyl)-N-(6-(4-(2-(4-(4-(2,4-dioxotetrahydropyrimidin-1(2H)-yl)-1H-indol-1-yl)piperidin-1-yl)ethyl)piperidin-1-yl)pyridin-3-yl)-2,5-dimethylpiperazine-1-carboxamide] the Dmax was no less than 50%.
In the case of N#Cc1ccc(O[C@H]2CC[C@H](NC(=O)c3cnc(N4CCC(CN5CCC(n6ccc7c(N8CCC(=O)NC8=O)ncnc76)CC5)CC4)nc3)CC2)cc1Cl [EAR200, N-((1r,4r)-4-(3-Chloro-4-cyanophenoxy)cyclohexyl)-2-(4-((4-(4-(2,4-dioxotetrahydropyrimidin-1(2H)-yl)-7H-pyrrolo[2,3-d]pyrimidin-7-yl)piperidin-1-yl)methyl)piperidin-1-yl)pyrimidine-5-carboxamide hydrochloride], the Dmax is reported as no less than 50%.
Compound N#Cc1ccc(O[C@H]2CC[C@H](NC(=O)c3ccc(N4CCC(CN5CC6(CC(n7ccc8c(N9CCC(=O)NC9=O)cccc87)C6)C5)CC4)nn3)CC2)cc1Cl [EAR173, N-((1r,4r)-4-(3-Chloro-4-cyanophenoxy)cyclohexyl)-6-(4-((6-(4-(2,4-dioxotetrahydropyrimidin-1(2H)-yl)-1H-indol-1-yl)-2-azaspiro[3.3]heptan-2-yl)methyl)piperidin-1-yl)pyridazine-3-carboxamide] has a Dmax of no less than 50%.
